# In patent US11339171B2, “MDM2 inhibitors” (Gan & Lee Pharmaceuticals, priority 2017, dated 2022):
# Target: T1, MDM2 (Homo sapiens, UniProt Q00987)
# T1 construct: made in house
# Assay: Inhibition test of MDM2-P53 (GST-MDM2, Biotin-P53, Anti-GST-Tb, SA-XL665)
# Type: binding
# Conditions: not given
# In short: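 HTRF-type assay using 4 nM GST-MDM2 (final), Biotin-P53, SA-XL665 and anti-GST-Tb in PBS with 0.1% BSA, 5 mM DTT and 1 mM AEBSF. Compounds in 5-fold serial dilutions over twelve points; incubation 90 min at 25° C with shaking before plate-reader read-out.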
# T1 sequence (Q00987 whole entry): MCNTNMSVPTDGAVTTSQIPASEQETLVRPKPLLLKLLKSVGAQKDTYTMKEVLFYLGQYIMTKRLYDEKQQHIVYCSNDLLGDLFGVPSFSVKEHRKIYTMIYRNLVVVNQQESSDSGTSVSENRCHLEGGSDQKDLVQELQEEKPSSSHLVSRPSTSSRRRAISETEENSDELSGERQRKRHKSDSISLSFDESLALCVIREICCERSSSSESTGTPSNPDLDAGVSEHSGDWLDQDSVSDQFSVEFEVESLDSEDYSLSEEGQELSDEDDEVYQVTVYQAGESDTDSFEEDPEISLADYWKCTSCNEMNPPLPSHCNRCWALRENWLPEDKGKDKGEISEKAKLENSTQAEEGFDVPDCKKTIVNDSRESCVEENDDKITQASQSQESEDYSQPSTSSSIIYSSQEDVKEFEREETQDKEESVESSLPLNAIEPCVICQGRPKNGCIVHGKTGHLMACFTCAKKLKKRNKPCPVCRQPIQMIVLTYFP
row,SMILES,IC50 [nM]
1,"COc1nc(OCCF)ncc1-c1nc2c(n1C(C)C)[C@]1(C(=O)Nc3cc(Cl)ccc31)N(c1cccc(Cl)c1)C2=O [Example R-171, (R)-6-chloro-5′-(3-chlorophenyl)-2′-(2-(2-fluoroethoxy)-4-methoxypyrimidin-5-yl)-3′-isopropyl-3′H-spiro[dihydroindole-3,4′-pyrrolo[3,4-d]imidazole]-2,6′(5′H)-dione]",8830
2,"CCN(C)c1ncc(-c2nc3c(n2C(C)C)[C@]2(C(=O)Nc4cc(Cl)ccc42)N(c2cc(Cl)ccc2C)C3=O)c(OC)n1 [Example R-119, (R)-6-chloro-5′-(5-chloro-2-methylphenyl)-2′-(2-(ethyl(methyl)amino)-4-methoxypyrimidin-5-yl)-3′-isopropyl-3′H-spiro[dihydroindole-3,4′-pyrrolo[3,4-d]imidazole]-2,6′(5′H)-dione]",851
3,"COc1nc(C(C)C)ncc1-c1nc2c(n1C(C)C)[C@]1(C(=O)Nc3cc(Cl)ccc31)N(c1cc(Cl)ccc1C)C2=O [Example R-172, (R)-6-chloro-5′-(5-chloro-2-methylphenyl)-3′-isopropyl-2′-(2-isopropyl-4-methoxypyrimidin-5-yl)-3′H-spiro[dihydroindole-3,4′-pyrrolo[3,4-d]imidazole]-2,6′(5′H)-dione]",408
4,"COc1cc(OCCO)ccc1-c1nc2c(n1C(C)C)[C@]1(C(=O)Nc3cc(Cl)ccc31)N(c1cc(Cl)ccc1C)C2=O [Example R-148, (R)-6-chloro-5′-(5-chloro-2-methylphenyl)-2′-(4-(2-hydroxyethoxy)-2-methoxyphenyl)-3′-isopropyl-3′H-spiro[dihydroindole-3,4′-pyrrolo[3,4-d]imidazole]-2,6′(5′H)-dione]",201
5,"COc1ncc(-c2nc3c(n2C(C)C)[C@]2(C(=O)Nc4cc(Cl)ccc42)N(c2ccc(OC(F)(F)F)c(Cl)c2)C3=O)c(OC)n1 [Example R-161, (R)-6-chloro-5′-(3-chloro-4-(trifluoromethoxy)phenyl)-2′-(2,4-dimethoxypyrimidin-5-yl)-3′-isopropyl-3′H-spiro[dihydroindole-3,4′-pyrrolo[3,4-d]imidazole]-2,6′(5′H)-dione]",126
6,"COc1nc(OCC(F)(F)F)ncc1-c1nc2c(n1C(C)C)[C@]1(C(=O)Nc3cc(Cl)ccc31)N(c1cc(Cl)ccc1C)C2=O [Example R-141, (R)-6-chloro-5′-(5-chloro-2-methylphenyl)-3′-isopropyl-2′-(4-methoxy-2-(2,2,2-trifluoroethoxy)pyrimidin-5-yl)-3′H-spiro[dihydroindole-3,4′-pyrrolo[3,4-d]imidazole]-2,6′(5′H)-dione]",762
7,"COc1cc(C(C)C)ccc1-c1nc2c(n1C(C)C)[C@]1(C(=O)Nc3cc(Cl)ccc31)N(c1cccc(Cl)c1)C2=O [Example R-93, (R)-6-chloro-5′-(3-chlorophenyl)-3′-isopropyl-2′-(4-isopropyl-2-methoxyphenyl)-3′H-spiro[dihydroindole-3,4′-pyrrolo[3,4-d]imidazole]-2,6′(5′H)-dione]",658
8,"COc1cc(OC)c(-c2nc3c(n2C(C)C)[C@@]2(C(=O)Nc4cc(Cl)ccc42)N(c2ccc(C(N)=O)c(Cl)c2)C3=O)cn1 [Example S-65, (S)-2-chloro-4-(6-chloro-2′-(4,6-dimethoxypyridin-3-yl)-3′-isopropyl-2,6′-dioxo-3′,6′-dihydro-5′H-spiro[dihydroindole-3,4′-pyrrolo[3,4-d]imidazole]-5′-yl)benzamide]",4.04
9,"CCOc1ncc(-c2nc3c(n2C(C)C)[C@]2(C(=O)Nc4cc(Cl)ccc42)N(c2cc(Cl)cnc2C)C3=O)c(OC)n1 [Example R-134, (R)-6-chloro-5′-(5-chloro-2-methylpyridin-3-yl)-2′-(2-ethoxy-4-methoxypyrimidin-5-yl)-3′-isopropyl-3′H-spiro[dihydroindole-3,4′-pyrrolo[3,4-d]imidazole]-2,6′(5′H)-dione]",322
10,"COc1ncc(-c2nc3c(n2C(C)C)[C@@]2(C(=O)Nc4cc(Cl)ccc42)N(c2cc(Cl)ccc2C#N)C3=O)c(OC)n1 [Example S-151, (S)-4-chloro-2-(6-chloro-2′-(2,4-dimethoxypyrimidin-5-yl)-3′-isopropyl-2,6′-dioxo-3′,6′-dihydro-5′H-spiro[dihydroindole-3,4′-pyrrolo[3,4-d]imidazole]-5′-yl)benzonitrile]",1410
11,"COc1nc(OCCF)ncc1-c1nc2c(n1C(C)C)[C@]1(C(=O)Nc3cc(Cl)ccc31)N(c1cc(Cl)cnc1C)C2=O [Example R-170, (R)-6-chloro-5′-(5-chloro-2-methylpyridin-3-yl)-2′-(2-(2-fluoroethoxy)-4-methoxypyrimidin-5-yl)-3′-isopropyl-3′H-spiro[dihydroindole-3,4′-pyrrolo[3,4-d]imidazole]-2,6′(5′H)-dione]",235
12,"COc1cc(F)c(-c2nc3c(n2C(C)C)[C@]2(C(=O)Nc4cc(Cl)ccc42)N(c2cc(Cl)ccc2C)C3=O)c(OC)c1 [Example R-130, (R)-6-chloro-5′-(5-chloro-2-methylphenyl)-2′-(2-fluoro-4,6-dimethoxyphenyl)-3′-isopropyl-3′H-spiro[dihydroindole-3,4′-pyrrolo[3,4-d]imidazole]-2,6′(5′H)-dione]",568
13,"CCOc1cc(OC)c(-c2nc3c(n2C(C)C)[C@]2(C(=O)Nc4cc(Cl)ccc42)N(c2cc(Cl)ccc2F)C3=O)cn1 [Example R-98, (R)-6-chloro-5′-(5-chloro-2-fluorophenyl)-2′-(6-ethoxy-4-methoxypyridin-3-yl)-3′-isopropyl-3′H-spiro[dihydroindole-3,4′-pyrrolo[3,4-d]imidazole]-2,6′(5′H)-dione]",1030
14,"CCc1ccccc1-c1nc2c(n1C(C)C)[C@]1(C(=O)Nc3cc(Cl)ccc31)N(c1cc(Cl)ccc1C)C2=O [Example R-7, (R)-6-chloro-5′-(5-chloro-2-methylphenyl)-2′-(2-ethylphenyl)-3′-isopropylisopropyl-3′H-spiro[dihydroindole-3,4′-pyrrolo[3,4-d]imidazole]-2,6′(5′H)-dione]",36000
15,"CNC(=O)c1ccc(-c2nc3c(n2C(C)C)[C@]2(C(=O)Nc4cc(Cl)ccc42)N(c2cc(Cl)ccc2C)C3=O)c(OC)c1 [Example R-54, (R)-4-(6-chloro-5′-(5-chloro-2-methylphenyl)-3′-isopropyl-2,6′-dioxo-5′,6′-dihydro-3′H-spiro[dihydroindole-3,4′-pyrrolo[3,4-d]imidazole]-2′-yl)-3-methoxy-N-methylbenzamide]",1960

# Same assay, conditions: labels are Example numbers; the compounds with S-configuration are meant
row,SMILES,inhibitory effect on MDM2 compared with positive control compound HDM201
1,"COc1cc(OC)c(-c2nc3c(n2C(C)C)C2(C(=O)Nc4cc(Cl)ccc42)N(c2cc(Cl)ccc2F)C3=O)cn1 (centres unmarked) [Example 133, 6-chloro-5′-(5-chloro-2-fluorophenyl)-2′-(4,6-dimethoxypyridin-3-yl)-3′-isopropyl-3′H-spiro[dihydroindole-3,4′-pyrrolo[3,4-d]imidazole]-2,6′(5′H)-dione]",better
2,"COc1ncc(-c2nc3c(n2C(C)C)C2(C(=O)Nc4cc(Cl)ccc42)N(c2cc(Cl)ccc2F)C3=O)c(OC)n1 (centres unmarked) [Example 44, 6-chloro-5′-(5-chloro-2-fluorophenyl)-2′-(2,4-dimethoxypyrimidin-5-yl)-3′-isopropyl-3′H-spiro[dihydroindole-3,4′-pyrrolo[3,4-d]imidazole]-2,6′(5′H)-dione]",better
3,"COc1cc(N(C)C)ccc1-c1nc2c(n1C(C)C)C1(C(=O)Nc3cc(Cl)ccc31)N(c1cc(Cl)ccc1F)C2=O (centres unmarked) [Example 81, 6-chloro-5′-(5-chloro-2-fluorophenyl)-2′-(4-(dimethylamino)-2-methoxyphenyl)-3′-isopropyl-3′H-spiro[dihydroindole-3,4′-pyrrolo[3,4-d]imidazole]-2,6′(5′H)-dione]",better
4,"COc1cc(OCCF)ncc1-c1nc2c(n1C(C)C)C1(C(=O)Nc3cc(Cl)ccc31)N(c1cc(Cl)cnc1C)C2=O (centres unmarked) [Example 173, 6-chloro-5′-(5-chloro-2-methylpyridin-3-yl)-2′-(6-(2-fluoroethoxy)-4-methoxypyridin-3-yl)-3′-isopropyl-3′H-spiro[dihydroindole-3,4′-pyrrolo[3,4-d]imidazole]-2,6′(5′H)-dione]",better
5,"COc1cc(C(F)(F)F)ncc1-c1nc2c(n1C(C)C)C1(C(=O)Nc3cc(Cl)ccc31)N(c1cccc(Cl)c1)C2=O (centres unmarked) [Example 142, 6-chloro-5′-(3-chlorophenyl)-3′-isopropyl-2′-(4-methoxy-6-(trifluoromethyl)pyridin-3-yl)-3′H-spiro[dihydroindole-3,4′-pyrrolo[3,4-d]imidazole]-2,6′(5′H)-dione]",better
6,"COc1ccccc1-c1nc2c(n1C(C)C)C1(C(=O)Nc3cc(Cl)ccc31)N(c1cc(Cl)c(=O)n(C)c1)C2=O (centres unmarked) [Example 53, 6-chloro-5′-(5-chloro-1-methyl-6-oxo-1,6-dihydropyridin-3-yl)-3′-isopropyl-2′-(2-methoxyphenyl)-3′H-spiro[dihydroindole-3,4′-pyrrolo[3,4-d]imidazole]-2,6′(5′H)-dione]",better

# Test system: human osteosarcoma cell line SJSA-1
# Assay: Inhibition of proliferation of human osteosarcoma cell line SJSA-1 (DAPI staining, In Cell Analyzer)
# Conditions: Homo sapiens, SJSA-1, 72 h, read-out: IC50 (nM), inhibitory activity on proliferation of human osteosarcoma cell line SJSA-1, SJSA-1, incubated 72 h
row,SMILES,IC50 [nM]
1,"COc1ccncc1-c1nc2c(n1C(C)C)[C@@]1(C(=O)Nc3cc(Cl)ccc31)N(c1ccc(F)c(Cl)c1)C2=O [Example S-59, (S)-6-chloro-5′-(3-chloro-4-fluorophenyl)-3′-isopropyl-2′-(4-methoxypyridin-3-yl)-3′H-spiro[dihydroindole-3,4′-pyrrolo[3,4-d]imidazole]-2,6′(5′H)-dione]",263

# Same assay, conditions: labels are Example numbers; the compounds with S-configuration are meant
row,SMILES,inhibitory effect on human osteosarcoma cell line SJSA-1 compared with positive control compound HDM201
1,"COc1nc(C2CC2)ncc1-c1nc2c(n1C(C)C)C1(C(=O)Nc3cc(Cl)ccc31)N(c1cc(Cl)cnc1C)C2=O (centres unmarked) [Example 159, 6-chloro-5′-(5-chloro-2-methylpyridin-3-yl)-2′-(2-cyclopropyl-4-methoxypyrimidin-5-yl)-3′-isopropyl-3′H-spiro[dihydroindole-3,4′-pyrrolo[3,4-d]imidazole]-2,6′(5′H)-dione]",better
